Where two headings read alike, the source gives them in different places.
Key:
Meth-A tumor cells [1] = test: TNF mutein and aspirin in mice with Meth-A tumor (Example 4)
Protocol: Female Balb/c mice were treated by subcutaneous implantation of Meth-A tumor cells as described in Example 1. Five mice per group were employed. Treatment was initiated seven days after the implantation.
A protocol was employed wherein aspirin or the TNF mutein of Example 1 alone, or aspirin together with the TNF mutein, were administered intravenously. In the combination group, aspirin was administered daily for five days and each dose was followed 1-4 hours later by TNF. PBS was used as a control.
The headings are defined in the footnotes of Table I. TABLE V

Meth-A tumor cells [2] = test: TNF mutein with NDGA, aspirin or both in mice with Meth-A tumor (Example 5); details: no TNF, aspirin 30 mg/kg i.v. and/or NDGA 15.6 mg/kg i.p. every third day 3 times; for △TW: day 14
Protocol: Female Balb/c mice were treated by subcutaneous implantation of Meth-A tumor cells as described in Example 1.
Details of the protocols are in the footnotes of Table VI. PBS was used as a control. Results were evaluated 14 days after initiation of treatment. The headings are defined in the footnotes of Table I. TABLE VI

Meth-A tumor cells [3] = test: TNF mutein and BSO in mice with Meth-A tumor (Example 3); type: in vivo, Female Balb/c mice; details: BSO 1.25 g/kg alone, i.p. twice daily for ten days
Protocol: Female Balb/c mice were implanted subcutaneously with Meth-A tumor cells as described in Example 1. Treatment was initiated seven days after the implantation.
A protocol was employed wherein BSO or the TNF mutein of Example 1 alone, or BSO together with the TNF mutein, were administered. BSO was administered intraperitonally and TNF intravenously. The BSO was started 24 hours prior to TNF administration twice daily (6-8 hours between doses) for ten days and TNF was given with the second BSO dose every third day for three times. BSO excipient was used as a volume control in the TNF alone groups. PBS was used as a control. The protocol is illustrated below: [formula]
Table III illustrates the results of this study, with the headings defined in the footnotes to Table II. The numbers in parentheses indicate the results from a repeat of the experiment.

[4] = Smith et al., cited from earlier work
[5] = test system: methylcholanthrene-induced murine fibrosarcoma (Meth-A); type: in vivo, Female Balb/c mice; details: uric acid 25 mg/kg alone, i.v. every third day three times
Text: Female Balb/c mice (Charles River Breeding Laboratories, Inc., Wilmington, MA) that were all 6-8 weeks old were employed in the in vivo tests. Animals were weight matched at 20 ± 3 g, randomized at five per cage, and ear-notched. All animals were held in quarantine observation for seven days after arrival, maintained in microisolator cages (Lab Products, Inc.), and fed standard laboratory diets and drinking water ad lib.
A mutein of human TNF-α having the first eight amino acids deleted from the N-terminus was prepared as described In U.S. Patent No. 4,677,064 Issued June 30, 1987 and Wang et al., Science (1985) 228:149-153. Briefly, TNF was induced from HL-60 cells and purified and sequenced. Then an intronless sequence encoding human TNF was prepared by producing enriched mRNA, constructing a cDNA library, selecting a probe and probing the library to recover the sequence. Then an ATG start codon was introduced immediately preceding the GTC sequence encoding N-terminal valine of the mature protein by site-directed mutagenesis. Clones were selected and strands ligated into expression vectors to obtain prokaryotic expression of the mutein. […]
The uric acid dose was slightly below the maximum concentration attainable without decreasing animal weight, determined in a preliminary toxicity study, and was given immediately prior to the TNF inoculation. […]

Meth-A tumor cells [6] = type: in vivo, Female Balb/c mice; details: uric acid 25 mg/kg alone, i.v. once daily for five days
Protocol: (§1) Female Balb/c mice were implanted subcutaneously with Meth-A tumor cells as described in Example 1.
An IL-2 mutein, designated des-ala₁-IL2-ser125 (with no alanine at position 1 of the mature IL-2 molecule and a serine at position 125 of the mature IL-2 molecule), was prepared by the method described in U.S. Patent No. 4,518,584, supra, isolated from refractile bodies in accordance with the procedure described in EP-A-0 206 828, published December 30, 1986, and formulated as described in U.S. Patent No. 4,604,377 in sodium dodecyl sulfate.
Table IX indicates the results obtained when the IL-2 mutein described herein alone, uric acid alone, and various combination injections of the IL-2 mutein and uric acid were administered intravenously to five mice per group (2-3 repeats) beginning seven days after tumor implantation and once daily for five days, with the uric acid being administered immediately prior to (about 10 minutes) the IL-2 administration when both were administered. Final measurements were made on day 14. The excipient control was injected with PBS. The uric acid doses were all 25 mg/kg of mice weight.

Meth-A tumor cells [7] = test: TNF mutein and vitamin C in mice with Meth-A tumor (Example 2); type: in vivo, Female Balb/c mice; details: for % Control △BW / Cures (△TW=0, or no visible tumor after 21 days from start of treatment) / Deaths / % Control △TW: i.v. every third day for three injections; for % Control △BW / % Control △TW: day 14
Text: as §1

[8] = aspirin 30 mg/kg alone, i.v., 14 days after treatment began
[9] = Vit.C 7 mg/kg, TNF 125 µg/kg where given
[10] = Vit.C 35 mg/kg, TNF 125 µg/kg where given
[11] = Vit.C 70 mg/kg, TNF 125 µg/kg where given

For `CC(=O)Oc1ccccc1C(=O)O` [Aspirin], the Cures (Meth-A tumor cells [1]; aspirin 30 mg/kg alone, i.v.) was 0/5, the Deaths (Meth-A tumor cells [1]; aspirin 30 mg/kg alone, i.v.) was 0/5 and the “△BW” value (Meth-A tumor cells [1]; [8]) was 1.34. For the same molecule, the “△TW” value (Meth-A tumor cells [1]; [8]) was 66.6, the “toxicity of aspirin alone” value (Meth-A tumor cells [1]; aspirin 30 mg/kg, single dose or once a day for five days) was “non-toxic” and the Cures (Meth-A tumor cells [2]) was 0/5. The Deaths (Meth-A tumor cells [2]; NDGA cell adds (1 tumor death d. 14), aspirin + NDGA cell adds (d. 5)) was 0/5 and the “△TW” value (Meth-A tumor cells [2]) was 60.3.

For `CCCCS(=N)(=O)CCC(N)C(=O)O` (stereo not drawn) [BSO, Buthionine Sulphoximine], the “Cures (no palpable tumor on day 14)” value (Meth-A tumor cells [3]) was 0/10, the Deaths (Meth-A tumor cells [3]) was 0/10 and the “△TW” value (Meth-A tumor cells [3]; mean values) was 29.8. The “△BW” value (Meth-A tumor cells [3]; mean values of two experiments) was 1.19, the toxicity ([4]; 400-800 mg/kg of BSO orally every eight hours, fifteen doses) was “toxic” and the toxicity ([4]; fifteen doses of 100 mg/kg/dose of BSO orally every eight hours, Proceedings of AACR, 28 (March 1987), p. 440) was “relatively non-toxic”.

In the case of `CC(Cc1ccc(O)c(O)c1)C(C)Cc1ccc(O)c(O)c1` (stereo not drawn) [NDGA, nordihydroguaiaretic acid (4,4'-[2,3-dimethyl-1,4-butanediyl]-bis[1,2-benzenediol])], the Cures (Meth-A tumor cells [2]) is reported as 0/5 and the “△TW” value (Meth-A tumor cells [2]) is reported as 50.8.

With `O=c1[nH]c(=O)c2[nH]c(=O)[nH]c2[nH]1` [Uric acid, uric acid] the “Cures (△TW=0, or no visible tumor after 21 days from start of treatment)” value [5] was 0/14, the “△TW (ratio of mean tumor volume at 14 days to start of treatment)” value [5] was 51.7 ± 17.7 and the Cures (Meth-A tumor cells [6]) was 0/5. For the same molecule, the “△TW” value (Meth-A tumor cells [6]; day 14) was 42.3.

With `O=C1O[C@H]([C@@H](O)CO)C(O)=C1O` [Vit.C, Ascorbic Acid] the “% Control △BW” value (Meth-A tumor cells [7]; Vit.C 7 mg/kg, TNF 125 µg/kg immediately after where given) was 92%, the “Cures (△TW=0, or no visible tumor after 21 days from start of treatment)” value (Meth-A tumor cells [7]; [9]) was 0/5 and the Deaths (Meth-A tumor cells [7]; [9]) was 0/5. For the same molecule, the “% Control △TW” value (Meth-A tumor cells [7]; [9]) was 76%, the “Cures (△TW=0, or no visible tumor after 21 days from start of treatment)” value (Meth-A tumor cells [7]; [10]) was 0/5 and the Deaths (Meth-A tumor cells [7]; [10]) was 0/5. For the same molecule, the “% Control △BW” value (Meth-A tumor cells [7]; [10]) was 100%, the “% Control △TW” value (Meth-A tumor cells [7]; [10]) was 88% and the “Cures (△TW=0, or no visible tumor after 21 days from start of treatment)” value (Meth-A tumor cells [7]; [11]) was 0/5. For the same molecule, the Deaths (Meth-A tumor cells [7]; [11]) was 0/5, the “% Control △BW” value (Meth-A tumor cells [7]; [11]) was 96% and the “% Control △TW” value (Meth-A tumor cells [7]; [11]) was 74%. For the same molecule, the “toxicity of vitamin C alone” value (Meth-A tumor cells [7]; at the three doses tested (7, 35, 70 mg/kg)) was “non-toxic”.
